# Test results published in patent publication US20260263361A1, “CANNABIDIOL AQUEOUS SOLUTION COMPOSITION AND CANNABIDIOL-CONTAINING PHARMACEUTICAL PREPARATION COMPRISING SAME” (priority 2023, published 2026).
# Key:
# [1] = Long-term stability of CBD-containing film: CBD content by HPLC after storage under harsh conditions; assay type: physicochemical
# Method: The long-term stability of the orally disintegrating film of Example 2, having the composition of Table 6, was evaluated.
# For comparison, the long-term stability of CBD in the orally disintegrating film containing CBD-prepared according to the composition shown in Table 7 and corresponding to Korean Patent Application No. 10-2019-0097649—was evaluated as Comparative Example 2.
# Immediately after film formation, the films were packaged in airtight containers and left under harsh conditions for 0, 24, and 72 hours, after which the CBD content was analyzed by high-performance liquid chromatography (HPLC).
# Additionally, further experiments were conducted to increase the stability of the orally disintegrating film of the current Example 2.
# [2] = Primary solubilizer mixed with an additional solubilizer, extent of CBD dissolution observed; assay type: physicochemical
# Method: Due to the compatibility required between ingredients for use in the CBD aqueous solution formulation, additional solubilizerswere mixed with the selected primary components, and the extent of CBD dissolution was evaluated.
Structure (SMILES),"Decrease (24 hrs, %) ([1]; 24 hrs vs 0 hr) [%]","CBD content 0 hr ([1]; airtight container, 0 hr, HPLC)","CBD content 24 hr ([1]; airtight container, 24 hr, HPLC)",state of CBD in aqueous solution (FIG. 1) [2]
"C=C(C)[C@@H]1CCC(C)=C[C@H]1c1c(O)cc(CCCCC)cc1O [CBD isolate powder, 2-[(1R,6R)-3-methyl-6-(1-methylethenyl)-2-cyclohexen-1-yl]-5-pentyl-1,3-benzenediol]",0.28,103.58,103.86,–
OCC(O)CO [Glycerin],–,–,–,not dissolved and appeared as precipitate or crystals
